According to patent publication US20250230171A1 (MOMA Therapeutics, Inc., priority 2023, published 2025):
Like-named read-outs stand apart in the source and are kept apart here.

What was measured:
DLD1 WT cells = test: 7-day cell viability assay (CellTiter-Glo), DLD1 parental (WT); assay type: cell-based, human; conditions: n=2
DLD1 BRCA2 (−/−) cells = test: 7-day cell viability assay (CellTiter-Glo), DLD1 BRCA2 (−/−); assay type: cell-based, human; conditions: n=2, read-out: Viability IC50 (uM) DLD1 BRCA2 null
In short: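 7-day growth assay in DLD1 cells with or without BRCA2; seeding densities chosen to keep log-linear growth. Compound: 10 uM top, 3-fold, 9 points. Endpoint: CTG ATP luminescence at RT.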

[1] = target: biotinylated Avi-POLθ[2-894] (Homo sapiens (Human), UniProt O75417); test: POLθ ATPase assay (ADP-Glo); conditions: n=2, read-out: Biochemical ATPase ADPGlo IC50
[2] = Homo sapiens, DLD-1, 168 h, 7-day viability
[3] = Homo sapiens, DLD-1, 168 h, 7-day CellTiter-Glo

Chain of biotinylated Avi-POLθ[2-894] (O75417 2-894): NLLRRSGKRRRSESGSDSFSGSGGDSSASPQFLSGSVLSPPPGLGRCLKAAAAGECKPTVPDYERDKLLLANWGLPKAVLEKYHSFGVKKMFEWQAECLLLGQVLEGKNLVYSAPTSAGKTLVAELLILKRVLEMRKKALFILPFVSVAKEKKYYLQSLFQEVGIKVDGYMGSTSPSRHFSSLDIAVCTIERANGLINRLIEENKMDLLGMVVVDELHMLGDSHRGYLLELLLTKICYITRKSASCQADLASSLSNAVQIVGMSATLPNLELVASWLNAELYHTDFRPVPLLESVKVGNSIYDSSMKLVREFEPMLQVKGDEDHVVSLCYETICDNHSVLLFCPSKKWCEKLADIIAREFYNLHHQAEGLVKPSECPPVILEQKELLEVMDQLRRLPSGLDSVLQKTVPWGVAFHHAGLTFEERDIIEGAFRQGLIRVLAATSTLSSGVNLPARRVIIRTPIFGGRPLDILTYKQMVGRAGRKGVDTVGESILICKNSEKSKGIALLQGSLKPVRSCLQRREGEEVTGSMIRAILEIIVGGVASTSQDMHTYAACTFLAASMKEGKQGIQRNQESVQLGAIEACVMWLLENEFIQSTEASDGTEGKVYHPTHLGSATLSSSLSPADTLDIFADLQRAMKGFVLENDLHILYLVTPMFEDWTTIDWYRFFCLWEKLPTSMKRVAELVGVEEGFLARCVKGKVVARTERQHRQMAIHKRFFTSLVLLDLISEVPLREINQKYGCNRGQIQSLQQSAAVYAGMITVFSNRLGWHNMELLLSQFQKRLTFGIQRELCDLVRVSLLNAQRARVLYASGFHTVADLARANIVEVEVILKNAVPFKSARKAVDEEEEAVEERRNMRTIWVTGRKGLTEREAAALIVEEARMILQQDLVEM

Row | IC50 (DLD1 BRCA2 (−/−) cells; [2]) [µM] | IC50 [1] [nM] | IC50 (DLD1 BRCA2 (−/−) cells; 7-day CellTiter-Glo) [µM] | IC50 ([1]; POLθ ATPase, ADP-Glo) [nM] | IC50 (DLD1 BRCA2 (−/−) cells; [3]) [µM] | Compound | IC50 (DLD1 WT cells; [2]) [µM] | IC50 (DLD1 WT cells; 7-day CellTiter-Glo) [µM] | IC50 (DLD1 WT cells; [3]) [µM]
1 | 0.001 to 0.1 | 1 to 15 | – | – | – | COc1cnc(Cl)cc1-c1cc(C)ncc1C(=O)Nc1nc2c(s1)CN(C(=O)c1c(C(F)F)nn(C)c1Cl)C2 [Example 89, 2′-chloro-N-(5-(5-chloro-3-(difluoromethyl)-1-methyl-1H-pyrazole-4-carbonyl)-5,6-dihydro-4H-pyrrolo[3,4-d]thiazol-2-yl)-5′-methoxy-6-methyl-[4,4′-bipyridine]-3-carboxamide] | ≥ 10 | – | –
2 | 0.1 to 0.25 | 1 to 15 | – | – | – | COc1cnc(Cl)cc1-c1cc(C)ncc1C(=O)Nc1nc2c(s1)CN(C(=O)[C@@H]1CCCCO1)C2 [Example 216, (S) 2′-chloro-5′-methoxy-6-methyl-N-(5-(tetrahydro-2H-pyran-2-carbonyl)-5,6-dihydro-4H-pyrrolo[3,4-d]thiazol-2-yl)-[4,4′-bipyridine]-3-carboxamide] | ≥ 10 | – | –
3 | – | – | 0.001 to 0.1 | 1 to 15 | – | N-(5-(4-Chloro-2-methoxybenzoyl)-5,6-dihydro-4H-pyrrolo[3,4-d]thiazol-2-yl)-4-(5-cyano-2-methoxyphenyl)-6-methylnicotinamide [Example 437] | – | ≥ 10 | –
4 | 0.1 to 0.25 | 1 to 15 | – | – | – | COc1cnc(Cl)cc1-c1cc(C)ncc1C(=O)Nc1nc2c(s1)CN(C(=O)c1ccnn1C)C2 [Example 170] | ≥ 10 | – | –
5 | 0.1 to 0.25 | 1 to 15 | – | – | – | COc1cnc(Cl)cc1-c1cc(C)ncc1C(=O)Nc1nc2c(s1)CN(C(=O)C1CC(C(F)F)C1)C2 (mixture of isomers) [Example 201] | ≥ 10 | – | –
6 | – | – | – | 1 to 15 | 0.001 to 0.1 | COc1cnc(Cl)cc1-c1cc(C)ncc1C(=O)Nc1nc2c(s1)CN(C(=O)c1nc3ccccc3o1)C2 | – | – | ≥ 10
7 | 0.001 to 0.1 | 1 to 15 | – | – | – | COc1cnc(Cl)cc1-c1cc(C)ncc1C(=O)Nc1nc2c(s1)CN(C(=O)c1cc(C(F)(F)F)nn1C)C2 [Example 44, 2′-chloro-5′-methoxy-6-methyl-N-(5-(1-methyl-3-(trifluoromethyl)-1H-pyrazole-5-carbonyl)-5,6-dihydro-4H-pyrrolo[3,4-d]thiazol-2-yl)-[4,4′-bipyridine]-3-carboxamide] | ≥ 10 | – | –
8 | 0.001 to 0.1 | 1 to 15 | – | – | – | COc1cnc(Cl)cc1-c1cc(C)ncc1C(=O)Nc1nc2c(s1)CN(C(=O)c1ncccc1OC(F)F)C2 [Example 145] | ≥ 10 | – | –
9 | 0.001 to 0.1 | 1 to 15 | – | – | – | COc1cnc(Cl)cc1-c1cc(C)ncc1C(=O)Nc1nc2c(s1)CN(C(=O)c1c(C)nn(C)c1Cl)C2 [Example 5, 2′-chloro-N-(5-(5-chloro-1,3-dimethyl-1H-pyrazole-4-carbonyl)-5,6-dihydro-4H-pyrrolo[3,4-d]thiazol-2-yl)-5′-methoxy-6-methyl-[4,4′-bipyridine]-3-carboxamide] | ≥ 10 | – | –
10 | – | – | – | 1 to 15 | 0.001 to 0.1 | COc1cc(Cl)nc(C(=O)N2Cc3nc(NC(=O)c4cnc(C)cc4-c4cc(Cl)ncc4OC)sc3C2)c1 | – | – | ≥ 10
11 | – | – | – | 1 to 15 | 0.001 to 0.1 | COc1cnc(Cl)cc1-c1cc(C)ncc1C(=O)Nc1nc2c(s1)CN(C(=O)c1ccc(C(F)(F)F)c(Cl)n1)C2 | – | – | ≥ 10
12 | 0.001 to 0.1 | 1 to 15 | – | – | – | COc1cnc(Cl)cc1-c1cc(C)ncc1C(=O)Nc1nc2c(s1)CN(C(=O)c1cccnc1C(F)F)C2 [Example 39, 2′-chloro-N-(5-(2-(difluoromethyl)nicotinoyl)-5,6-dihydro-4H-pyrrolo[3,4-d]thiazol-2-yl)-5′-methoxy-6-methyl-[4,4′-bipyridine]-3-carboxamide] | ≥ 10 | – | –
13 | – | – | – | 1 to 15 | 0.001 to 0.1 | COc1cccc(C(=O)N2Cc3nc(NC(=O)c4cnc(C)cc4-c4cc(Cl)ncc4OC)sc3C2)n1 | – | – | 2 to 5
14 | ≥ 2 | ≥ 900 | – | – | – | COc1ccccc1-c1cc(C)ncc1C(=O)Nc1nc2c(s1)CN(CC1CCCCC1)CC2 | ≥ 10 | – | –
15 | 0.001 to 0.1 | 1 to 15 | – | – | – | COc1cnc(C(=O)N2Cc3nc(NC(=O)c4cnc(C)cc4-c4cc(Cl)ncc4OC)sc3C2)o1 [Example 79, 2′-chloro-5′-methoxy-N-(5-(5-methoxyoxazole-2-carbonyl)-5,6-dihydro-4H-pyrrolo[3,4-d]thiazol-2-yl)-6-methyl-[4,4′-bipyridine]-3-carboxamide] | 0.5 to 2 | – | –
16 | – | – | – | 1 to 15 | 0.001 to 0.1 | COc1cnc(Cl)cc1-c1cc(C)ncc1C(=O)Nc1nc2c(s1)CN(C(=O)C1CCC(C(F)F)CC1)C2 (stereo not drawn) [Example 406, (Cis and trans) 2′-chloro-N-(5-(4-(difluoromethyl)cyclohexane-1-carbonyl)-5,6-dihydro-4H-pyrrolo[3,4-d]thiazol-2-yl)-5′-methoxy-6-methyl-[4,4′-bipyridine]-3-carboxamide] | – | – | ≥ 10
17 | 0.001 to 0.1 | 1 to 15 | – | – | – | COc1cnc(Cl)cc1-c1cc(C)ncc1C(=O)Nc1nc2c(s1)CN(C(=O)c1c(Cl)cnn1C)C2 [Example 156] | ≥ 10 | – | –
18 | 0.001 to 0.1 | 1 to 15 | – | – | – | COc1cnc(Cl)cc1-c1cc(C)ncc1C(=O)Nc1nc2c(s1)CN(C(=O)[C@@H]1C[C@H]1C(F)F)C2 [Example 3, 2′-chloro-N-(5-((1R,2R)-2-(difluoromethyl)cyclopropane-1-carbonyl)-5,6-dihydro-4H-pyrrolo[3,4-d]thiazol-2-yl)-5′-methoxy-6-methyl-[4,4′-bipyridine]-3-carboxamide] | 2 to 5 | – | –
19 | – | – | – | 1 to 15 | 0.001 to 0.1 | COc1ccc(C#N)cc1-c1cc(C)ncc1C(=O)Nc1nc2c(s1)CN(C(=O)c1cccc(C(F)F)c1Cl)C2 [Example 487] | – | – | ≥ 10
20 | 0.5 to 2 | 1 to 15 | – | – | – | COc1ccc(C#N)cc1-c1cc(C)ncc1C(=O)Nc1nc2c(s1)CN(C(=O)c1cc(C)ccn1)C2 | ≥ 10 | – | –
21 | 0.1 to 0.25 | 1 to 15 | – | – | – | COc1cnc(Cl)cc1-c1cc(C)ncc1C(=O)Nc1nc2c(s1)CN(C(=O)[C@H]1C[C@H](C(F)(F)F)C1)C2 [Example 164, 4-(5-Cyano-2-methoxyphenyl)-6-methyl-N-(5-(pyridin-3-ylsulfonyl)-5,6-dibydro-4H-pyrrolo[3,4-d]thiazol-2-yl)nicotinamide] | ≥ 10 | – | –
22 | – | – | – | 1 to 15 | 0.001 to 0.1 | COc1cc(Cl)c(C(=O)N2Cc3nc(NC(=O)c4cnc(C)cc4-c4cc(Cl)ncc4OC)sc3C2)cn1 | – | – | ≥ 10
23 | ≥ 2 | ≥ 900 | – | – | – | COc1ccccc1-c1cc(C)ncc1C(=O)Nc1nc2c(s1)C(=O)NCC2 | ≥ 10 | – | –
24 | 0.001 to 0.1 | 1 to 15 | – | – | – | COc1cnc(Cl)cc1-c1cc(C)ncc1C(=O)Nc1nc2c(s1)CN(C(=O)c1cncc(Cl)c1)C2 [Example 28, 2′-chloro-N-(5-(5-chloronicotinoyl)-5,6-dihydro-4H-pyrrolo[3,4-d]thiazol-2-yl)-5′-methoxy-6-methyl-[4,4′-bipyridine]-3-carboxamide] | 0.5 to 2 | – | –
25 | ≥ 2 | 1 to 15 | – | – | – | COc1cnc(Cl)cc1-c1cc(C)ncc1C(=O)Nc1nc2c(s1)CN(C(=O)c1cn(C(C)C)nc1C)C2 [Example 175] | ≥ 10 | – | –
26 | 0.001 to 0.1 | 1 to 15 | – | – | – | COc1cnc(Cl)cc1-c1cc(C)ncc1C(=O)Nc1nc2c(s1)CN(C(=O)c1ccnc(C)c1)C2 [Example 194] | ≥ 10 | – | –
